In general, IC50 refers to the concentration needed to halve the response being measured.

The source of these data is patent US8829195B2, “Compounds and compositions for inhibiting the activity of ABL1, ABL2 and BCR-ABL1” (Novartis AG, priority 2012, dated 2014).

A short description of data set [1]: Estimation of human PK parameters and efficacious dose from in vivo PK. Conditions: estimated from in vivo PK. The text has this:
In vivo PK parameters can be utilized for the estimation of human PK parameters. Applying various methods known in the art for prediction of human PK, the predicted human clearance can be estimated.

The test system of data set [2] is KCL-22 xenograft. Kind of data set: In vivo efficacy in KCL-22 xenograft model, dual agent treatment. Details: species or system mouse. The procedure:
In Vivo Efficacy in KCL-22 Xenograft Model—Dual Agent Treatment 6-8 week old female nude mice purchased from Harlan (Indianapolis Ind.) were implanted subcutaneously with 2×10^6 KCL-22 cells in 50% matrigel (BD Biosciences, #354234) in the right dorsal axillary region. […] Compounds of the invention in a phosphate-buffered saline solution were prepared weekly and dosed by oral gavage at 30 mg/kg twice daily, and Nilotinib solution was dosed at 75 mg/kg twice daily. Animals received either single agent alone or combination of both simultaneously. Tumor volume was determined by twice weekly digital calipering and calculated as Length×Width^2/2.

Data set [3] concerns KCL-22 xenograft. Nature of the data set: In vivo efficacy in KCL-22 xenograft model, single agent treatment. Details: species or system mouse. The procedure:
In Vivo Efficacy in KCL-22 Xenograft Model—Single Agent Treatment Compounds of the invention were dosed orally in a mouse KCL-22 xenograft model for 7 days. 6-8 week old female nude mice purchased from Harlan (Indianapolis Ind.) were implanted subcutaneously with 5×10^6 KCL-22 cells in 50% matrigel (BD Biosciences, #354234) in the right dorsal axillary region. […] Compounds of the invention in phosphate buffered saline were prepared weekly and dosed by oral gavage at 3-30 mg/kg twice daily (n=6 mice per dose level). Tumor volume was determined by twice weekly digital calipering and calculated as Length×Width^2/2.

Data set [4] addresses T1, Ba/F3-BCR-ABL1-T315I cells (Homo sapiens, UniProt P00519, T315I, cells depend on it).
T1 construct: A similar approach was used to generate Ba/F3 cells that depend on a BCR-ABL1 variant in which threonine 315 is replaced with isoleucine; fused on or other part: P11274 (Breakpoint cluster region protein)
Nature of the data set: Ba/F3-BCR-ABL1-T315I cell proliferation assay. Type of data set: cell-based, murine. The conditions noted are these: 48 hours; read-out: Ba/F3-BCR-ABL1-T315I IC50.

The target in data set [5] is T2, ABL1 (64-515) (Homo sapiens, UniProt P00519).
T2 construct: 3.5 nM ABL (ABL(64-515), produced in-house from E. coli); His6 followed by a PreScission protease cleavage site (N, cleaved yes); made in house; host or cells: E. coli (BL21 (DE3) according to b733)
Nature of the data set: Radio ABL1 (64-515) radiometric filter-binding assay. Type of data set: biochemical.
Procedure: Expression and purification of protein kinase—Expression and purification of human ABL was performed using standard expression purification procedures. […] The His-ABL was expressed in E. coli BL21 (DE3) and the ABL proteins were isolated by Ni-affinity on a Ni-NTA column (Qiagen). The His-tag was removed by PreScission protease (GE Healthcare) and the non-phosphoprylated ABL further purified on a Mono Q HR 10/10 (GE Healthcare, mono-phosphorylated ABL is about 10-20% of total ABL protein) and HiLoad 16/60 Superdex 200 size exclusion column (GE Healthcare).
For determination of ABL kinase activity, the radiometric filter-binding assay was used. […] 10 μL of enzyme (ranging between 5 nM to 20 nM) was added to initiate the reaction. Pre-incubation of enzyme with compounds (when stated) was performed by exposing the enzyme to compounds prior to addition of the substrate mixture (ATP and/or peptide substrate). […] Filter-plates were washed 3× with 0.5% H3PO4, followed by addition of 30 μL scintillation cocktail (Microscint, Perkin Elmer) per well and then analysed in a TopCount NXT scintillation counter (Perkin Elmer). Results were expressed as IC50 values.

For data set [6], the target named is T2, ABL1 (64-515). Kind of data set: Caliper ABL1 (64-515) microfluidic mobility shift assay. Type of data set: biochemical. Conditions: Table of Biochemical Data.
Procedure: All assays were performed in 384-well microtiter plates. Each assay plate contained 8-point serial dilutions for 40 test compounds, as well as four 8-point serial dilutions of staurosporine as a reference compound, plus 16 high and 16 low controls. Liquid handling and incubation steps were done on a Thermo CatX workstation equipped with Innovadyne Nanodrop Express. Between pipetting steps, tips were cleaned in wash cycles using wash buffer.
The assay plates were prepared by addition of 50 mL per well of compound solution in 90% DMSO. […] Plates with terminated kinase reactions were transferred to the Caliper LC3000 workstations for reading. Phosphorylated and unphosphorylated peptides were separated using the Caliper microfluidic mobility shift technology. Briefly, samples from terminated kinase reactions were applied to the chip. Analytes are transported through the chip by constant buffer flow and the migration of the substrate peptide is monitored by the fluorescence signal of its label. Phosphorylated peptide (product) and unphosphorylated peptide (substrate) are separated in an electric field by their charge/mass ratio. Kinase activities were calculated from the amounts of formed phospho-peptide. IC50 values were determined from percent inhibition values at different compound concentrations by non-linear regression analysis.
Preparation of compound dilutions: Test compounds were dissolved in DMSO (10 mM) and transferred into 1.4 mL flat bottom or V-shaped Matrix tubes carrying a unique 2D matrix. The stock solutions were stored at +2° C. if not used immediately. For the test procedure the vials were defrosted and identified by a scanner whereby a working sheet was generated that guided the subsequent working steps.
Compound dilutions were made in 96-well plates. This format enabled the assay of maximally 40 individual test compounds at 8 concentrations (single points) including 4 reference compounds. The dilution protocol included the production of “pre-dilution plates”, “master plates” and “assay plates”.
Pre-dilution plates: Polypropylene 96-well plates were used as pre-dilution plates. […] All dilution steps were done on a HamiltonSTAR robot.
These plates were used directly for the assay which was performed in a total volume of 9.05 μL.
In a further data set the target is T3, Ba/F3-BCR-ABL1-WT cells (Homo sapiens, UniProt P00519).
T3 construct: fused on or other part: P11274 (Breakpoint cluster region protein)
Kind of data set: Ba/F3-BCR-ABL1-WT cell proliferation assay. Type of data set: cell-based, murine. Conditions: 48 hours; read-out: Ba/F3-BCR-ABL1-WT IC50.

Procedure for Ba/F3-BCR-ABL1-WT cells: To generate Ba/F3 cells that depend on BCR-ABL1 expression for growth and survival, Ba/F3 cells were engineered to express BCR-ABL1 using retroviral transduction with a MSCV based retroviral vector containing a p210 BCR-ABLlexpression cassette. […] These cells are referred to as Ba/F3-BCR-ABL-WT.
Ba/F3-WT cells were maintained in RPMI1640 media with L-glutamine, HEPES (Lonza), 10% FBS (Gibco) and 5 ng/ml IL-3 (Calbiochem). Ba/F3-BCR-ABL1-WT cells and Ba/F3-BCR-ABL1-T315I cells were manitained in RPMI1640 media with L-glutamine, HEPES (Lonza) and 10% FBS (Gibco).
For each cell line, the cell density was adjusted to 50 000 cells/mL and 50 μL (2500 cells) added per well of a 384-well assay plate.
Test compounds were resuspended in DMSO at a concentration of 10 mM. A serial three-fold dilution of each compound with DMSO was performed in 384-well plates using the Janus Liquid Dispenser (PerkinElmer). Compound was delivered to the assay plates containing 2500 cells in a 50 μL volume via Acoustic delivery from an ATS-100 (EDC).
Cells were incubated at 37° C. in a humidified environment with 5% carbon dioxide for 48 hours. Britelite plus solution (Perkin Elmer) was prepared according to the manufacturer's instructions and 25 μL added to each well of the assay plate. […] The degree of luminescence correlates with the number of cells in each well. The effect of each inhibitor concentration can therefore be calculated and IC50 values generated.

Consider `O=C(Nc1ccc(OC(F)(F)Cl)cc1)c1cnc(N2CC[C@@H](O)C2)c(-c2ccn[nH]2)c1` [Example 9, (R)—N-(4-(Chlorodifluoromethoxy)phenyl)-6-(3-hydroxypyrrolidin-1-yl)-5-(1H-pyrazol-5-yl)nicotinamide], for which the predicted human clearance in data set [1] is on record as 3 mL/min/kg. Besides, in data set [1] (human, read-out: volume of distribution (human, estimated)), the Vd is 1 L/kg. In the data set on KCL-22 xenograft [2] (30 mg/kg BID after resistance to 75 mg/kg Nilotinib BID), the “response of nilotinib resistant tumors (FIG. 3)” value was “regression of the tumors”. Also, the “tumor growth inhibition compared to vehicle-treated mice” value in the data set with KCL-22 xenograft [3] (3 mg/kg twice daily, oral, 7 days) is reported as 45%. Besides, the tumor regression in the data set with KCL-22 xenograft [3] (7.5 mg/kg twice daily, oral, 7 days) is on record as 56%; in the data set on KCL-22 xenograft [3] (15 mg/kg twice daily, oral, 7 days), 88%; in the data set on KCL-22 xenograft [3] (30 mg/kg twice daily, oral, 7 days), 92%. In the data set on KCL-22 xenograft [3] (daily treatment, subcutaneous KCL-22 xenografts), the “antitumor activity (FIG. 2)” value is listed as “Dose-dependent antitumor activity”.
As for `O=C(Nc1ccc(SC(F)(F)F)c(F)c1)c1cnc(N2CC[C@@H](O)C2)c(-c2ccn[nH]2)c1` [Example 15, (R)—N-(3-Fluoro-4-((trifluoromethyl)thio)phenyl)-6-(3-hydroxypyrrolidin-1-yl)-5-(1H-pyrazol-5-yl)nicotinamide], the GI50 amounted to 31 nM in data set [4] and 1.9 nM at Ba/F3-BCR-ABL1-WT cells. Also, the values for the IC50 at ABL1 (64-515) [5] and at ABL1 (64-515) [6] were 11 nM and 0.3 nM, respectively.
For the compound `Cc1cc(-c2cc(C(=O)Nc3ccc(OC(F)(F)F)cc3)cnc2N2CC[C@@H](O)C2)[nH]n1` [Example 3, (R)-6-(3-Hydroxypyrrolidin-1-yl)-5-(3-methyl-1H-pyrazol-5-yl)-N-(4-(trifluoromethoxy)phenyl)nicotinamide], the GI50 in data set [4] came out at 133 nM; on Ba/F3-BCR-ABL1-WT cells, 7.5 nM. Also, the figures for the IC50 on ABL1 (64-515) [5] and at ABL1 (64-515) [6] were 4 nM and 0.7 nM, respectively.
For the compound `Cc1cn(-c2cc(NC(=O)c3ccc(C)c(Nc4nccc(-c5cccnc5)n4)c3)cc(C(F)(F)F)c2)cn1` [nilotinib], the tumor regression in the data set with KCL-22 xenograft [2] (nilotinib alone 75 mg/kg twice daily, after 4 week daily treatment) was > 84%; with KCL-22 xenograft [3] (75 mg/kg twice daily, positive control), 82%. In addition, in the data set on KCL-22 xenograft [2] (nilotinib alone, after the 4 week response, most tumors), the “tumor volume on relapse” value is reported as > 500 mm^3.
As to `O=C(Nc1ccc(C(F)(F)C(F)(F)F)cc1)c1cnc(N2CC[C@@H](O)C2)c(-c2ccn[nH]2)c1` [Example 16, (R)-6-(3-Hydroxypyrrolidin-1-yl)-N-(4-(perfluoroethyl)phenyl)-5-(1H-pyrazol-5-yl)nicotinamide], the GI50 is 92 nM in data set [4] and 4.1 nM on Ba/F3-BCR-ABL1-WT cells. Also, the IC50 at ABL1 (64-515) [5] was 12 nM; on ABL1 (64-515) [6], < 0.13 nM.
In the case of `O=C(Nc1ccc(OC(F)(F)Cl)cc1)c1ccc(N2CC[C@@H](O)C2)c(-c2[nH]ncc2F)c1` [Example 24, (R)—N-(4-(Chlorodifluoromethoxy)phenyl)-3-(4-fluoro-1H-pyrazol-5-yl)-4-(3-hydroxypyrrolidin-1-yl)benzamide], the GI50 in data set [4] was found to be 22 nM; on Ba/F3-BCR-ABL1-WT cells, 1.1 nM. Further, the IC50 on ABL1 (64-515) [5] was 5 nM; on ABL1 (64-515) [6], 0.4 nM.
Regarding `O=C(Nc1ccc(SC(F)(F)Cl)cc1)c1cnc(N2CC[C@@H](O)C2)c(-c2ccn[nH]2)c1` [Example 18, (R)—N-(4-((Chlorodifluoromethyl)thio)phenyl)-6-(3-hydroxypyrrolidin-1-yl)-5-(1H-pyrazol-5-yl)nicotinamide], the GI50 in data set [4] amounted to 32 nM; on Ba/F3-BCR-ABL1-WT cells, 1.5 nM. The IC50 on ABL1 (64-515) [5] was 2 nM; at ABL1 (64-515) [6] it was 0.2 nM.
In the same order, the values of `Cn1ccc(-c2cc(C(=O)Nc3ccc(OC(F)(F)Cl)cc3)cnc2N2CC[C@@H](O)C2)n1` [Example 28, (R)—N-(4-(Chlorodifluoromethoxy)phenyl)-6-(3-hydroxypyrrolidin-1-yl)-5-(1-methyl-1H-pyrazol-3-yl)nicotinamide] are 150 nM, 7.5 nM, 2.8 nM and 1.9 nM.
On to `O=C(Nc1ccc(C(F)(F)C(F)(F)Cl)cc1)c1cnc(N2CC[C@@H](O)C2)c(-c2ccn[nH]2)c1` [Example 31, (R)—N-(4-(2-Chloro-1,1,2,2-tetrafluoroethyl)phenyl)-6-(3-hydroxypyrrolidin-1-yl)-5-(1H-pyrazol-5-yl)nicotinamide], for which the values for the GI50 (in data set [4]; at Ba/F3-BCR-ABL1-WT cells) were 133 nM and 4.1 nM, respectively. Moreover, the IC50 on ABL1 (64-515) [5] was 1 nM; at ABL1 (64-515) [6] it was 2.5 nM.
Regarding `O=C(Nc1ccc(OC(F)(F)F)c(F)c1)c1cnc(N2CC[C@@H](O)C2)c(-c2ccn[nH]2)c1` [Example 13, (R)—N-(3-Fluoro-4-(trifluoromethoxy)phenyl)-6-(3-hydroxypyrrolidin-1-yl)-5-(1H-pyrazol-5-yl)nicotinamide], the GI50 in data set [4] amounted to 150 nM; at Ba/F3-BCR-ABL1-WT cells, 9.6 nM. Also, the IC50 at ABL1 (64-515) [5] turned out to be 10 nM; at ABL1 (64-515) [6], 0.6 nM.
On the same counts, the results for `O=C(Nc1ccc(OC(F)(F)F)c(F)c1)c1cnc(N2CC[C@H](CO)C2)c(-c2ccn[nH]2)c1` [Example 14, (S)—N-(3-Fluoro-4-(trifluoromethoxy)phenyl)-6-(3-(hydroxymethyl)pyrrolidin-1-yl)-5-(1H-pyrazol-5-yl)nicotinamide] are 218 nM, 18.9 nM, 10 nM and 0.9 nM.
Take `O=C(Nc1ccc(SC(F)(F)F)cc1)c1cnc(N2CC[C@@H](O)C2)c(-c2ccn[nH]2)c1` [Example 11, (R)-6-(3-Hydroxypyrrolidin-1-yl)-5-(1H-pyrazol-5-yl)-N-(4-((trifluoromethyl)thio)phenyl)nicotinamide]: the values for the GI50 (in data set [4]; at Ba/F3-BCR-ABL1-WT cells) were 38 nM and 1 nM, respectively. Besides, the IC50 was < 3 nM at ABL1 (64-515) [5] and < 0.13 nM at ABL1 (64-515) [6].
Take `NC[C@@H]1CCN(c2ncc(C(=O)Nc3ccc(OC(F)(F)Cl)cc3)cc2-c2ccn[nH]2)C1` [Example 21, (S)-6-(3-(Aminomethyl)pyrrolidin-1-yl)-N-(4-(chlorodifluoromethoxy)phenyl)-5-(1H-pyrazol-5-yl)nicotinamide]: the GI50 in data set [4] was determined as 149 nM; on Ba/F3-BCR-ABL1-WT cells, 4 nM. In addition, the values for the IC50 on ABL1 (64-515) [5] and at ABL1 (64-515) [6] were 1 nM and 1.3 nM, respectively.
On to `O=C(Nc1ccc(OC(F)(F)F)cc1)c1cnc(N2CC[C@@H](O)C2)c(-c2[nH]ncc2F)c1` [Example 5, (R)-5-(4-Fluoro-1H-pyrazol-5-yl)-6-(3-hydroxypyrrolidin-1-yl)-N-(4-(trifluoromethoxy)phenyl)nicotinamide], for which the GI50 in data set [4] amounted to 134 nM; on Ba/F3-BCR-ABL1-WT cells it was 8.1 nM. Besides, the IC50 on ABL1 (64-515) [5] turned out to be 7 nM; at ABL1 (64-515) [6], 1.2 nM.
On to `O=C(Nc1ccc(OC(F)(F)C(F)(F)F)cc1)c1cnc(N2CC[C@@H](O)C2)c(-c2ccn[nH]2)c1` [Example 19, (R)-6-(3-Hydroxypyrrolidin-1-yl)-N-(4-(perfluoroethoxy)phenyl)-5-(1H-pyrazol-5-yl)nicotinamide], for which the GI50 in data set [4] was found to be 236 nM; at Ba/F3-BCR-ABL1-WT cells, 13.5 nM. Further, the IC50 at ABL1 (64-515) [5] was 5 nM; at ABL1 (64-515) [6], 1.8 nM.
For `Cc1cn[nH]c1-c1cc(C(=O)Nc2ccc(OC(F)(F)Cl)cc2)cnc1N1CC[C@@H](O)C1` [Example 33, (R)—N-(4-(Chlorodifluoromethoxy)phenyl)-6-(3-hydroxypyrrolidin-1-yl)-5-(4-methyl-1H-pyrazol-5-yl)nicotinamide], the GI50 in data set [4] came to 32 nM; on Ba/F3-BCR-ABL1-WT cells, 1.5 nM. Also, the IC50 on ABL1 (64-515) [5] turned out to be 6 nM; at ABL1 (64-515) [6], 0.6 nM.
For `O=C(Nc1ccc(OC(F)(F)Cl)cc1)c1cnc(N2CC[C@@H](O)C2)c(-c2cc(C(F)(F)F)n[nH]2)c1` [Example 26, (R)—N-(4-(Chlorodifluoromethoxy)phenyl)-6-(3-hydroxypyrrolidin-1-yl)-5-(3-(trifluoromethyl)-1H-pyrazol-5-yl)nicotinamide], the figures for the GI50 (in data set [4]; at Ba/F3-BCR-ABL1-WT cells) were 227 nM and 9 nM, respectively. The figures for the IC50 on ABL1 (64-515) [5] and at ABL1 (64-515) [6] were 12 nM and 10.4 nM, respectively.
